Test results reported in PubChem BioAssay (NCI).
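Here, GI50 denotes the concentration required for 50% inhibition of growth. TGI denotes the concentration required for complete inhibition of growth.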

How the values were obtained:
Assay in all cases: inhibition of tumour cell growth, NCI panel, 384-well format
TK-10 renal = test system: TK-10 renal
IGROV1 ovarian = test system: IGROV1 ovarian
NCI-H460 NSCLC = test system: NCI-H460 NSCLC
T-47D breast = test system: T-47D breast
UACC-257 melanoma = test system: UACC-257 melanoma
U251 glioblastoma = test system: U251 glioblastoma
UACC-62 melanoma = test system: UACC-62 melanoma
RPMI-8226 leukemia = test system: RPMI-8226 leukemia
NCI-H23 lung = test system: NCI-H23 lung
SNB-19 CNS = test system: SNB-19 CNS
MOLT-4 leukemia = test system: MOLT-4 leukemia
SR leukemia = test system: SR leukemia
OVCAR-4 ovarian = test system: OVCAR-4 ovarian
NCI/ADR-RES ovarian = test system: NCI/ADR-RES ovarian
HCT-116 colon = test system: HCT-116 colon
DU-145 prostate = test system: DU-145 prostate
SK-MEL-2 melanoma = test system: SK-MEL-2 melanoma
A498 renal = test system: A498 renal
SK-OV-3 ovarian = test system: SK-OV-3 ovarian
OVCAR-3 ovarian = test system: OVCAR-3 ovarian
OVCAR-5 ovarian = test system: OVCAR-5 ovarian
MCF7 breast = test system: MCF7 breast
HOP-62 NSCLC = test system: HOP-62 NSCLC
SK-MEL-28 melanoma = test system: SK-MEL-28 melanoma
HT29 colon = test system: HT29 colon
UO-31 renal = test system: UO-31 renal
HCC-2998 colon = test system: HCC-2998 colon
CCRF-CEM leukemia = test system: CCRF-CEM leukemia
SK-MEL-5 melanoma = test system: SK-MEL-5 melanoma
SF-268 CNS = test system: SF-268 CNS
NCI-H226 lung = test system: NCI-H226 lung
HCT-15 colon = test system: HCT-15 colon
KM12 colon = test system: KM12 colon
SN12C renal = test system: SN12C renal
HL-60(TB) leukemia = test system: HL-60(TB) leukemia
EKVX NSCLC = test system: EKVX NSCLC
NCI-H322M lung = test system: NCI-H322M lung
SF-539 CNS = test system: SF-539 CNS
CAKI-1 renal = test system: CAKI-1 renal
MALME-3M melanoma = test system: MALME-3M melanoma
NCI-H522 lung = test system: NCI-H522 lung
SF-295 CNS = test system: SF-295 CNS
MDA-MB-435 melanoma = test system: MDA-MB-435 melanoma
786-0 renal = test system: 786-0 renal
COLO 205 colon = test system: COLO 205 colon
BT-549 breast = test system: BT-549 breast
A549 NSCLC = test system: A549 NSCLC

## O=C1CC[C@H](N2Cc3c(OCc4ccc(CN5CCOCC5)cc4)cccc3C2=O)C(=O)N1
TK-10 renal
  GI50: > 100 µM
  TGI: > 100 µM
IGROV1 ovarian
  GI50: > 100 µM
  TGI: > 100 µM
NCI-H460 NSCLC
  GI50: > 100 µM
  TGI: > 100 µM
T-47D breast
  GI50: > 100 µM
  TGI: > 100 µM
UACC-257 melanoma
  GI50: > 100 µM
  TGI: > 100 µM
U251 glioblastoma
  GI50: > 100 µM
  TGI: > 100 µM
UACC-62 melanoma
  GI50: > 100 µM
  TGI: > 100 µM
RPMI-8226 leukemia
  GI50: 11.9 µM
  TGI: > 100 µM
NCI-H23 lung
  GI50: > 100 µM
  TGI: > 100 µM
SNB-19 CNS
  GI50: > 100 µM
  TGI: > 100 µM
MOLT-4 leukemia
  GI50: > 100 µM
  TGI: > 100 µM
SR leukemia
  GI50: > 100 µM
  TGI: > 100 µM
OVCAR-4 ovarian
  GI50: > 100 µM
  TGI: > 100 µM
NCI/ADR-RES ovarian
  GI50: > 100 µM
  TGI: > 100 µM
HCT-116 colon
  GI50: > 100 µM
  TGI: > 100 µM
DU-145 prostate
  GI50: > 100 µM
  TGI: > 100 µM
SK-MEL-2 melanoma
  GI50: > 100 µM
  TGI: > 100 µM
A498 renal
  GI50: > 100 µM
  TGI: > 100 µM
SK-OV-3 ovarian
  GI50: > 100 µM
  TGI: > 100 µM
OVCAR-3 ovarian
  GI50: > 100 µM
  TGI: > 100 µM
OVCAR-5 ovarian
  GI50: > 100 µM
  TGI: > 100 µM
MCF7 breast
  GI50: > 100 µM
  TGI: > 100 µM
HOP-62 NSCLC
  GI50: > 100 µM
  TGI: > 100 µM
SK-MEL-28 melanoma
  GI50: > 100 µM
  TGI: > 100 µM
HT29 colon
  GI50: > 100 µM
  TGI: > 100 µM
UO-31 renal
  GI50: > 100 µM
  TGI: > 100 µM
HCC-2998 colon
  GI50: > 100 µM
  TGI: > 100 µM
CCRF-CEM leukemia
  GI50: > 100 µM
  TGI: > 100 µM
SK-MEL-5 melanoma
  GI50: > 100 µM
  TGI: > 100 µM
SF-268 CNS
  GI50: > 100 µM
  TGI: > 100 µM
NCI-H226 lung
  GI50: > 100 µM
  TGI: > 100 µM
HCT-15 colon
  GI50: > 100 µM
  TGI: > 100 µM
KM12 colon
  GI50: > 100 µM
  TGI: > 100 µM
SN12C renal
  GI50: > 100 µM
  TGI: > 100 µM
HL-60(TB) leukemia
  GI50: 43.9 µM
  TGI: > 100 µM
EKVX NSCLC
  GI50: > 100 µM
  TGI: > 100 µM
NCI-H322M lung
  GI50: > 100 µM
  TGI: > 100 µM
SF-539 CNS
  GI50: > 100 µM
  TGI: > 100 µM
CAKI-1 renal
  GI50: > 100 µM
  TGI: > 100 µM
MALME-3M melanoma
  GI50: > 100 µM
  TGI: > 100 µM
NCI-H522 lung
  GI50: > 100 µM
  TGI: > 100 µM
SF-295 CNS
  GI50: > 100 µM
  TGI: > 100 µM
MDA-MB-435 melanoma
  GI50: > 100 µM
  TGI: > 100 µM
786-0 renal
  GI50: > 100 µM
  TGI: > 100 µM
COLO 205 colon
  GI50: > 100 µM
  TGI: > 100 µM
BT-549 breast
  GI50: > 100 µM
  TGI: > 100 µM
A549 NSCLC
  GI50: > 100 µM
  TGI: > 100 µM
